Starred links: 1 amine or outer side, 2 acyl side, 3 side chain; linkers in the order of their positions; H or OH if unused. Non-standard residues stand in square brackets, D forms with d. Residues, ends and D or L forms follow the SMILES beside them. X1 = Nc1ncnc2c1ncn2[C@@H]1O[C@H](COP(=O)(O)OP(=O)(O)OC[C@H]2O[C@H](n3cncc3C[C@H](N[*:1])C(=O)[*:2])[C@H](O)[C@@H]2O)[C@@H](O)[C@H]1O
Key:
[1] = quoted without reference; cited from earlier work
[2] = Chemical stability assay (LC-MS based) under acidic, basic and nucleophilic conditions; assay type: physicochemical
Text: Having prepared ADPr‐His peptides 26–28, we tested their stability under basic and acidic conditions in an LC–MS‐based assay to evaluate their sensitivity for future synthetic and biochemical studies. A selected set of chemically diverse conditions (aqueous acid, aqueous base and a neutral nucleophile) was probed because these are commonly applied in proteomic studies to identify ADP‐ribosylation sites[22] in proteins or during sample preparation.[14, 28] Aqueous solutions of the ADPr peptides with a final concentration of 0.1 M TFA, 0.1 M NaOH or 0.5 M NH2OH were prepared and shaken for 24 h at room temperature. […] In contrast, the NaOH treatment led to some conversion of the N(τ)‐ribosylated histidines 26 and 27 into products with an identical mass (approximately 7 and 11 %, respectively), indicating a slow epimerization of the modified histidine residue in N(τ)‐ribosyl peptides. […]
Figure 5 A) Chemical stability of peptide 28 under basic conditions (NaOH, 0.1 M). […] Peptide degradation was quantified by analyzing the UV‐trace (260 nm) using Xcalibur software. […] Enzymatic turnover of the various peptides was assessed by monitoring AMP release directly (NudT16) or converting released ADPr via NudT5 to AMP. AMP was measured using the AMP‐Glo assay (Promega). Samples are background corrected and normalized to NudT16 activity The data represents mean values±SD measured in triplicates. […]

| Compound | pKa [1] | ADPr-peptide remaining in its original form ([2]; 0.1 M NaOH, after 24 h, LC-MS UV-trace 260 nm) | degradation of the pyrophosphate linkage ([2]; alkaline treatment (0.1 M NaOH), after a week, LC-MS) |
| --- | --- | --- | --- |
| c1c[nH]nn1 [1,2,3‐triazole] | 9.4 | – | – |
| CC(C)C[C@H](NC(=O)CNC(=O)[C@H](C)NC(=O)CNC(=O)[C@H](Cc1cncn1[C@H]1O[C@H](COP(=O)(O)OP(=O)(O)OC[C@H]2O[C@@H](n3cnc4c(N)ncnc43)[C@H](O)[C@@H]2O)[C@@H](O)[C@H]1O)NC(=O)[C@H](Cc1ccccc1)NC(=O)[C@@H](N)[C@@H](C)O)C(=O)N[C@H](C(=O)N[C@H](C(=O)N1CCC[C@H]1C(=O)N[C@H](C(=O)N[C@@H](CC(=O)O)C(=O)N[C@@H](CCCCN)C(=O)O)C(C)C)C(C)C)C(C)C [compound 28] (H-TF[X1]GAGLVVPVDK-OH) | – | approximately 60% | no degradation of the pyrophosphate linkage was observed |
